According to paper PMC5802278, “Molecular and cellular mechanisms of HIF prolyl hydroxylase inhibitors in clinical trials” (Chemical Science, 2017):
Where two headings read alike, the source gives them in different places.

Assays:
Hep3b cells = assay: Hep3b cell viability / cell density after prolonged treatment; assay type: cell-based, human
Description: Cell seeding and inhibitor treatments were performed in parallel in the same manner as used for the HRE reporter assay (see above). Resazurin (Sigma, R7017) was used for detection of cell viability at a final concentration of 10μg/ml. Cells were incubated with Resazurin at 37°C
Hep3b cell viability after prolonged treatment of PHD inhibitors. Cell viability

[1] = test system: pre-dialysis subjects already on Darbepoetin treatment; set-up: method as in ref 40 (a number printed in a supplementary file, which may have a reference list of its own: not looked up in the article's list); settings: 16 weeks; cited from earlier work
[2] = test system: HIF target genes in Hep3b cells; assay: RT-qPCR of HIF target genes; assay type: cell-based, human; settings: 24 hours, 2.5 or 10 μM
Description: The upregulation of HIF-α isoforms has multiple downstream effects.[1],[30],[86],[87] To investigate whether the inhibitors have differential effects on HIF target genes we measured their mRNA levels for a set of HIF target genes after 24 hours in Hep3b cells. The panel aimed to cover a small, yet representative, HIF target gene set. […]. […]. page 16:
Cells were lysed using the TRI reagent® (Sigma T9424). RNA was then extracted by phase separation following the manufacturer’s protocol. Extracted RNA was treated with the RNase-free DNase I (DNA-free™ DNA Removal Kit, Applied Biosystems AM1906) to eliminate contaminating DNA. For reverse transcription, 1μg of DNase-treated RNA samples were used for cDNA synthesis using High-Capacity cDNA Reverse Transcription Kit (Thermo Fisher Scientific 4368814). […] Quantitation of 18 relative expression level was analyzed using the ΔΔCT method with HPRT as a reference gene using; statistical analyses of the biological and technical repeats were calculated using StepOne Software (version 2.2.2). […]
Cell seeding and inhibitor treatments were performed in parallel in the same manner as used for the HRE reporter assay (see above). […] Fluorescence signals were measured with an excitation wavelength of 544 nm and emission wavelength of 590 nm using a FLUOstar Omega Microplate Reader (BMG

[3] = test system: patients with non-dialysis dependent (NDD) CKD (stage 3a/b, 4, or 5); set-up: method as in ref 33 (a number printed in a supplementary file, which may have a reference list of its own: not looked up in the article's list); settings: starting 450 mg daily, titrated, 20 weeks; cited from earlier work
[4] = test system: patients with NDD CKD (stage 3 or 4) and Hb ≤ 10.5 g/dL; set-up: method as in ref 36 (a number printed in a supplementary file, which may have a reference list of its own: not looked up in the article's list); settings: after 16 weeks of treatment, 143 subjects evaluable for efficacy; cited from earlier work
[5] = test system: NDD-CKD subjects with Hb ≤ 11.0 g/dL; set-up: method as in ref 34 (a number printed in a supplementary file, which may have a reference list of its own: not looked up in the article's list); settings: 4 weeks, cited from earlier work
[6] = test system: patients with ESRD on haemodialysis and previously with Epoetin Alfa; set-up: method as in ref 38 (a number printed in a supplementary file, which may have a reference list of its own: not looked up in the article's list); settings: TIW, 7 weeks, cited from earlier work
[7] = test system: patients with stable end-stage renal disease (ESRD) treated with haemodialysis; set-up: method as in ref 35 (a number printed in a supplementary file, which may have a reference list of its own: not looked up in the article's list); settings: cited from earlier work
[8] = test system: patients with haemodialysis CKD, Hb 9.5-12.0 g/dL; set-up: method as in ref 43 (a number printed in a supplementary file, which may have a reference list of its own: not looked up in the article's list); settings: cited from earlier work
[9] = test system: patients with NDD CKD stage 3-5 and Hb 8.5-11.0 g/dL; set-up: method as in ref 42 (a number printed in a supplementary file, which may have a reference list of its own: not looked up in the article's list); settings: highest dose (5 mg) daily, over 4 weeks; cited from earlier work
[10] = test system: patients with haemodialysis CKD, Hb 9.5-12.0 g/dL; set-up: method as in ref 42 (a number printed in a supplementary file, which may have a reference list of its own: not looked up in the article's list); settings: 5 mg daily, 4 weeks; cited from earlier work

CC(C)(C)OC(=O)c1ccc(-n2[nH]cc(-n3ccnn3)c2=O)nc1 [IOX4]
cell viability after prolonged treatment (Hep3b cells; 10 μM, 24, 48, 72 hours): significant reduction in cell viability | reduction in cell density versus the other 3 inhibitors (judged visually) (Hep3b cells; 10 μM, 72nd hour): 40–50%

O=c1c(-n2ccnn2)c[nH]n1-c1cc(N2CCOCC2)ncn1 [Molidustat]
mean change in Hb to evaluation period [1]: 0.46 g/dL

O=C(O)CNC(=O)c1ncc(-c2cccc(Cl)c2)cc1O [Vadadustat]
upregulation of assayed HIF target genes [2]: failed to obviously upregulate assayed HIF target genes | subjects with Hb increase ≥ 1.2 g/dL from baseline or mean Hb ≥ 11.0 g/dL during last 2 weeks of treatment [3]: 55%

Cc1nc(C(=O)NCC(=O)O)c(O)c2ccc(Oc3ccccc3)cc12 [FG-4592]
subjects with Hb increase ≥ 1 g/dL from baseline and Hb of ≥ 11.0 g/dL (Hb response) by week 17 [4]: 91.6% | subjects with Hb increase ≥ 1 g/dL from baseline ([5]; 0.7 mg/kg BIW): 30% | subjects with Hb increase ≥ 1 g/dL from baseline ([5]; 0.7 mg/kg TIW): 58% | subjects with Hb increase ≥ 1 g/dL from baseline ([5]; 1.0 mg/kg BIW): 60% | subjects with Hb increase ≥ 1 g/dL from baseline ([5]; 1.0 mg/kg TIW): 40% | subjects with Hb increase ≥ 1 g/dL from baseline ([5]; 1.5 mg/kg BIW): 80% | subjects with Hb increase ≥ 1 g/dL from baseline ([5]; 1.5 mg/kg TIW): 91% | subjects with Hb increase ≥ 1 g/dL from baseline ([5]; 2.0 mg/kg BIW): 100% | subjects with Hb increase ≥ 1 g/dL from baseline ([5]; 2.0 mg/kg TIW): 100% | Hb levels maintained ([6]; high-dose cohort): 100% | Hb levels maintained ([6]; low-dose cohort): 59.1% | Hb levels maintained ([6]; medium-dose cohort): 88.9% | subjects with Hb increase ≥ -0.5 g/dL from baseline ([7]; Part 1, 6-week treatment, Roxadustat 1.5-2.0 mg/kg pool versus Epoetin Alfa arm): 79% | average Roxadustat for Hb level maintenance (mean Hb ≥ 11.0 g/dL during last 4 weeks of treatment) ([7]; Part 2, 19-week treatment): 1.68 ± 0.65 mg/kg TIW

O=C(O)CNC(=O)C1C(=O)N(C2CCCCC2)C(=O)N(C2CCCCC2)C1=O [GSK1278863]
mean Hb increase from baseline at week 4 ([8]; 4 mg daily): -0.28 g/dL | mean Hb increase from baseline at week 4 ([8]; 6 mg daily): -0.01 g/dL | mean Hb increase from baseline at week 4 ([8]; 8 mg daily): 0.54 g/dL | mean Hb increase from baseline at week 4 ([8]; 10 mg daily): 0.97 g/dL | Hb increase [9]: ~ 1.0 g/dL | Hb level maintenance after switch from rhEPO [10]: maintained
